Experimental data from article PMC5698418 (Nature Communications, 2017).
Structures can show the parent of a compound that is named as a salt. Where two headings read alike, the source gives them in different places.

System: BDNF-induced nuclear Arc expression in primary cortical neurons
Test: Chemogenomic screen: high-content image-based assay of BDNF-induced nuclear Arc expression (96-well)
Format: cell-based, mouse
Experimental: To increase the throughput of our pharmacological screening for modulators of Arc, the above mentioned assay was adapted to cultures of mouse primary cortical neurons in 96-well plates.
All 319 compounds were initially tested at a final concentration of 16.7 µM with three biological replicates.
Screening of compounds in the chemogenomic library was carried out using DIV13 primary forebrain cortical neurons cultured on poly-L-lysine/laminin-coated 96-well plates (Ibidi USA, Madison, WI). Cells were seeded at a density of 30,000 cells per well and treated with the compound library and BDNF according to the experimental design presented in Fig. 3a. After experimental treatment, cells were processed for Arc and acetyl-H3K9 immunocytochemistry according to the protocol described above. Both antigens (Arc and acetyl-H3K9) were imaged using an IN Cell Analyzer 6000 imaging system and a ×40 objective. […] High-throughput quantification of nuclear Arc immunofluorescence signal was performed in a similar fashion than the low-throughput procedure described above but with the exception that acetyl-H3K9 was used as a nuclear mask to guide the automated quantification of nuclear Arc immunofluorescence signal.

[1] = chemogenomic (SMART) screen, BDNF-induced nuclear Arc expression, primary cortical neurons, BDNF control 19.5
[2] = nuclear Arc-positive cells relative to DMSO + BDNF control, negative values = decrease
[3] = BDNF-induced nuclear Arc expression, primary cortical neurons, chemogenomic screen
[4] = nuclear Arc-positive cells relative to DMSO control (BDNF), negative = decrease

Compound | Percentage of cell with nuclear Arc immunostaining above 2σ threshold [1] | Fold-change — Normalized to DMSO control (BDNF) [2] | further results
CC(=C(CCO)SSCC1CCCO1)N(C=O)Cc1cnc(C)nc1N (stereo in doubt) [Fursultiamine] | – | – | Percentage of cell with nuclear Arc immunostaining above 2σ threshold: 15.4%
CN1CC(=O)NC1=O [1-Methylhydantoin] | 31.8% | 1.6 fold | –
COc1cc(/C=C/C(=O)C(=Cc2ccc(F)c(F)c2)C(=O)/C=C/c2ccc(O)c(OC)c2)ccc1O [3,4-Difluorobenzocurcumin] | – | – | Percentage of cell with nuclear Arc immunostaining above 2σ threshold [3]: 1.4%; Fold-change — Normalized to DMSO control (BDNF) [4]: -14.1 fold
O=c1cc(-c2ccccc2)oc2c(O)c(O)ccc12 [7,8-Dihydroxyflavone] | 32.7% | 1.7 fold | –
CN1CCc2cc3c(cc2[C@H]1[C@@H]1OC(=O)c2c1ccc1c2OCO1)OCO3 [(+)-Bicuculline] | – | 1.1 fold | Percentage of cell with nuclear Arc immunostaining above 2σ threshold: 20.9%
O=C(O[C@@H]1Cc2c(O)cc(O)cc2O[C@@H]1c1cc(O)c(O)c(O)c1)c1cc(O)c(O)c(O)c1 [(-)-Epigallocatechin gallate] | 38.0% | 1.9 fold | –
NC[C@H](CC(=O)O)c1ccc(Cl)cc1 [(R)-Baclofen] | 31.8% | 1.6 fold | –
CC[C@H](C)[C@H](NC(=O)[C@H](CO)NC(=O)[C@@H](NC(=O)[C@@H]1CCCN1C(=O)[C@H](C)NC(=O)[C@@H](N)CC(N)=O)C(C)C)C(=O)N1CCC[C@H]1C(=O)N[C@@H](CCC(N)=O)C(=O)O [AL-108] | – | – | Percentage of cell with nuclear Arc immunostaining above 2σ threshold [3]: 8.6%; Fold-change — Normalized to DMSO control (BDNF) [4]: -2.3 fold
COc1ccc(CNC(=O)Nc2ncc([N+](=O)[O-])s2)cc1 [AR-A014418] | – | – | Percentage of cell with nuclear Arc immunostaining above 2σ threshold [3]: 4.9%; Fold-change — Normalized to DMSO control (BDNF) [4]: -4.0 fold
CC(=O)NCCCS(=O)(=O)O [Acamprosate] | – | – | Percentage of cell with nuclear Arc immunostaining above 2σ threshold: 9.4%
CC(=O)Nc1nnc(S(N)(=O)=O)s1 [Acetazolamide] | – | – | Percentage of cell with nuclear Arc immunostaining above 2σ threshold [3]: 4.9%
COc1ccc2cccc(CCNC(C)=O)c2c1 [Agomelatine] | 17.6% | – | –
NC12CC3CC(CC(C3)C1)C2 [Amantadine] | 32.9% | 1.7 fold | –
CC[N+](CC)(CCNC(=O)C(=O)NCC[N+](CC)(CC)Cc1ccccc1Cl)Cc1ccccc1Cl [Ambenonium] | – | – | Percentage of cell with nuclear Arc immunostaining above 2σ threshold: 15.1%
Cn1c(=O)c2[nH]cnc2n(C)c1=O [Aminophylline] | 23.1% | 1.2 fold | –
CCN1CCCC1CNC(=O)c1cc(S(=O)(=O)CC)c(N)cc1OC (stereo not shown) [Amisulpride] | 24.6% | 1.3 fold | –
CN(C)CCC=C1c2ccccc2CCc2ccccc21 [Amitriptyline] | 12.3% | – | –
Clc1ccc2c(c1)C(N1CCNCC1)=Nc1ccccc1O2 [Amoxapine] | 12.9% | – | –
O=C(c1ccc2nccnc2c1)N1CCCCC1 [Ampalex] | 40.8% | 2.1 fold | –
COc1ccc(C(=O)N2CCCC2=O)cc1 [Aniracetam] | – | – | Percentage of cell with nuclear Arc immunostaining above 2σ threshold [3]: 8.2%
CN1[C@H]2C[C@H](OC(=O)[C@H](CO)c3ccccc3)C[C@@H]1[C@@H](O)C2 [Anisodamine] | – | 1.3 fold | Percentage of cell with nuclear Arc immunostaining above 2σ threshold: 25.5%
CN1CC2c3ccccc3Oc3ccc(Cl)cc3C2C1 (stereo not shown) [Asenapine] | – | – | Percentage of cell with nuclear Arc immunostaining above 2σ threshold [3]: 11.2%
O=C(O)c1cccc(-c2noc(-c3ccccc3F)n2)c1 [Ataluren] | 38.6% | 2.0 fold | –
CNCC[C@@H](Oc1ccccc1C)c1ccccc1 [Atomoxetine] | 17.6% | – | –
CC(C)n1c(=O)n(C(=O)NC2CC3CCC(C2)N3C)c2ccccc21 (stereo not shown) [BIMU-8] | – | -1.2 fold | Percentage of cell with nuclear Arc immunostaining above 2σ threshold: 16.3%

Compound | Percentage of cell with nuclear Arc immunostaining above 2σ threshold [1] | Fold-change — Normalized to DMSO control (BDNF) [2] | further results
NCC(CC(=O)O)c1ccc(Cl)cc1 (stereo not shown) [Baclofen] | 28.6% | 1.5 fold | –
O=C(O)[C@H]1O[C@@H](Oc2cc3oc(-c4ccccc4)cc(=O)c3c(O)c2O)[C@H](O)[C@@H](O)[C@@H]1O [Baicalin] | 34.6% | 1.8 fold | –
O=C(CCCN1CCC(n2c(O)nc3ccccc32)CC1)c1ccc(F)cc1 [Benperidol] | 18.9% | – | –
OC(CCN1CCCCC1)(c1ccccc1)C1CCCCC1 (stereo not shown) [Benzhexol hydrochloride] | 20.4% | 1.0 fold | –
CN(C)CCCOc1nn(Cc2ccccc2)c2ccccc12 [Benzydamine] | 25.2% | 1.3 fold | –
COc1ccc2cc3[n+](cc2c1OC)CCc1cc2c(cc1-3)OCO2 [Berberine] | – | – | Percentage of cell with nuclear Arc immunostaining above 2σ threshold [3]: 2.2%
Cc1ccc(C23CNCC2C3)cc1 (stereo not shown) [Bicifadine] | – | – | Percentage of cell with nuclear Arc immunostaining above 2σ threshold [3]: 7.2%
OC(CCN1CCCCC1)(c1ccccc1)C1CC2C=CC1C2 (stereo not shown) [Biperiden] | 13.3% | – | –
CCN1CCN(c2cc(-c3ccc(F)cc3)c3c(n2)CCCCCC3)CC1 [Blonanserin] | – | – | Percentage of cell with nuclear Arc immunostaining above 2σ threshold [3]: 10.9%
CC(C)(C)OC(=O)c1ncn2c1[C@@H]1CCCN1C(=O)c1c(Br)cccc1-2 [Bretazenil] | – | 2.0 fold | Percentage of cell with nuclear Arc immunostaining above 2σ threshold: 39.0%
CCN[C@H]1CN(CCCOC)S(=O)(=O)c2sc(S(N)(=O)=O)cc21 [Brinzolamide] | 28.3% | 1.5 fold | –
CCN(CC)CCNC(=O)c1cc(Br)c(N)cc1OC [Bromopride] | 27.7% | 1.4 fold | –
O=C(CCCN1CCC(O)(c2ccc(Br)cc2)CC1)c1ccc(F)cc1 [Bromperidol] | 28.9% | 1.5 fold | –
CC(NC(C)(C)C)C(=O)c1cccc(Cl)c1 (stereo not shown) [Bupropion] | – | – | Percentage of cell with nuclear Arc immunostaining above 2σ threshold [3]: 9.0%
O=C1CC2(CCCC2)CC(=O)N1CCCCN1CCN(c2ncccn2)CC1 [Buspirone] | – | – | Percentage of cell with nuclear Arc immunostaining above 2σ threshold [3]: 10.3%
C[C@H](NC[C@H](O)CP(=O)(O)Cc1ccccc1)c1ccc(Cl)c(Cl)c1 [CGP 55845] | – | 1.3 fold | Percentage of cell with nuclear Arc immunostaining above 2σ threshold: 24.6%
O=C(c1ccc2c(c1)OCCO2)N1CCCCC1 [CX-546] | – | – | Percentage of cell with nuclear Arc immunostaining above 2σ threshold: 6.5%; Fold-change — Normalized to DMSO control (BDNF) [4]: -3.0 fold
O=C1c2cc3c(cc2OC2CCCN12)OCCO3 (stereo not shown) [CX-614] | – | -1.5 fold | Percentage of cell with nuclear Arc immunostaining above 2σ threshold: 13.1%
NC(=O)N1c2ccccc2C=Cc2ccccc21 [Carbamazepine] | – | – | Percentage of cell with nuclear Arc immunostaining above 2σ threshold [3]: 7.2%
CCN(CC)CCOCCOC(=O)C1(c2ccccc2)CCCC1 [Carbetapentane] | 17.2% | – | –
C[C@@](Cc1ccc(O)c(O)c1)(NN)C(=O)O [Carbidopa] | 36.1% | 1.9 fold | –
O=C(O)C(O)C(O)C(=O)O.c1cnc2cc3c(cc2n1)[C@@H]1CNC[C@H]3C1 [Chantix] | – | – | Percentage of cell with nuclear Arc immunostaining above 2σ threshold [3]: 10.1%; Fold-change — Normalized to DMSO control (BDNF) [4]: -1.9 fold
CN1C(=O)CCS(=O)(=O)C1c1ccc(Cl)cc1 (stereo not shown) [Chlormezanone] | – | 1.3 fold | Percentage of cell with nuclear Arc immunostaining above 2σ threshold: 25.9%
CN(C)CCC(c1ccc(Cl)cc1)c1ccccn1 (stereo not shown) [Chlorphenamine] | 31.0% | 1.6 fold | –
